Activity calls are given as the source filed them.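 The calls were made as follows: active = compounds lowering cell ATP signal whose fitted AC50 is at most twice their highest tested dose; inconclusive = flat curve with moderate signal loss, or unreliable fit; inactive = the rest.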
Test system: HEK293T viability, ATP luminescence, 72 h
Assay: cytotoxicity in HEK293T cells, dose response, cytotoxicity control, cell-based, CellTiter-Glo luminescence, dry powder (AID 743481)
Settings: not given

SMILES	AC50
C[C@H](CO)N1C[C@H](C)[C@H](CN(C)C(=O)Nc2ccc(C(F)(F)F)cc2)OCCCC[C@H](C)Oc2ccc(NC(=O)CCC(F)(F)F)cc2C1=O	> 52 µM (inactive)
C[C@H]1CCCCO[C@@H](CN(C)S(=O)(=O)c2ccc(Cl)cc2)[C@@H](C)CN([C@@H](C)CO)C(=O)c2cc(NC(=O)NC3CCCCC3)ccc2O1	15.8 µM
COc1ccc(S(=O)(=O)N(C)C[C@@H]2OCCCC[C@H](C)Oc3ccc(NS(=O)(=O)c4ccc(Cl)cc4)cc3C(=O)N([C@@H](C)CO)C[C@@H]2C)cc1	16.4 µM
C[C@@H]1CN([C@@H](C)CO)C(=O)c2cc(NC(=O)C3CCCCC3)ccc2O[C@@H](C)CCCCO[C@H]1CN(C)C(=O)Nc1cccc2ccccc12	7.74 µM

Test system: not listed separately
Assay: as above
Settings: HEK293T viability, ATP luminescence, 72 h; at 26 µM (top of the series)

SMILES	activity change, negative = cytotoxicity
COc1ccc(NC(=O)N(C)C[C@@H]2OCCCC[C@H](C)Oc3ccc(NC(=O)C4CCCCC4)cc3C(=O)N([C@H](C)CO)C[C@@H]2C)cc1	-7.25% (inactive)
C[C@H]1CCCCO[C@@H](CN(C)C(=O)Nc2ccc3c(c2)OCO3)[C@@H](C)CN([C@@H](C)CO)C(=O)c2cc(NC(=O)NC3CCCCC3)ccc2O1	-7.34% (inactive)
C[C@H](CO)N1C[C@H](C)[C@H](CN(C)C(=O)Nc2ccc(F)cc2)OCCCC[C@H](C)Oc2ccc(NC(=O)C3CCCCC3)cc2C1=O	-7.09% (inactive)
CC(C)(C)c1ccc(-c2nc(-c3ccncc3)no2)cc1	-16.3% (inactive)
C[C@@H]1CCCCO[C@H](CN(C)C(=O)Nc2cccc3ccccc23)[C@@H](C)CN([C@H](C)CO)C(=O)c2cc(NC(=O)C3CCCCC3)ccc2O1	-3.68% (inactive)
C[C@@H]1CN([C@@H](C)CO)C(=O)c2cc(NC(=O)C3CCCCC3)ccc2O[C@@H](C)CCCCO[C@@H]1CN(C)C(=O)Nc1cccc2ccccc12	-17% (inactive)
C[C@@H]1CCCCO[C@@H](CN(C)C(=O)Nc2cccc3ccccc23)[C@@H](C)CN([C@@H](C)CO)C(=O)c2cc(NC(=O)C3CCCCC3)ccc2O1	-16.3% (inactive)
C[C@H](CO)N1C[C@H](C)[C@H](CN(C)C(=O)Nc2ccc(F)cc2)OCCCC[C@H](C)Oc2ccc(NC(=O)C3CCC3)cc2C1=O	-3.85% (inactive)
C[C@H](CO)N1C[C@H](C)[C@H](CN(C)C(=O)Nc2ccc(F)cc2)OCCCC[C@H](C)Oc2ccc(NC(=O)NC3CCCCC3)cc2C1=O	-9.87% (inactive)
C[C@@H]1CCCCO[C@H](CN(C)C(=O)Nc2cccc3ccccc23)[C@H](C)CN([C@@H](C)CO)C(=O)c2cc(NC(=O)C3CCCCC3)ccc2O1	-10.3% (inactive)
C[C@H](CO)N1C[C@H](C)[C@H](CN(C)C(=O)Nc2ccc(F)cc2)OCCCC[C@H](C)Oc2ccc(NC(=O)C3CCCCCC3)cc2C1=O	-6.61% (inactive)
C[C@@H]1CCCCO[C@H](CN(C)C(=O)Nc2cccc3ccccc23)[C@H](C)CN([C@H](C)CO)C(=O)c2cc(NC(=O)C3CCCCC3)ccc2O1	3.66% (inactive)
Cc1ccc(NC(=O)N(C)C[C@@H]2OCCCC[C@H](C)Oc3ccc(NC(=O)C4CCCCC4)cc3C(=O)N([C@H](C)CO)C[C@@H]2C)cc1	9.91% (inactive)
C[C@@H]1CCCCO[C@@H](CN(C)C(=O)Nc2cccc3ccccc23)[C@H](C)CN([C@H](C)CO)C(=O)c2cc(NC(=O)C3CCCCC3)ccc2O1	-11.7% (inactive)
C[C@H](CO)N1C[C@H](C)[C@H](CN(C)C(=O)Nc2ccccc2)OCCCC[C@H](C)Oc2ccc(NC(=O)CCC(F)(F)F)cc2C1=O	-6.87% (inactive)
C[C@H](CO)N1C[C@H](C)[C@H](CN(C)C(=O)Nc2cccc3ccccc23)OCCCC[C@H](C)Oc2ccc(NC(=O)CCC(F)(F)F)cc2C1=O	24.6% (inactive)
C[C@H](CO)N1C[C@H](C)[C@H](CN(C)C(=O)Nc2ccc(F)cc2)OCCCC[C@H](C)Oc2ccc(NC(=O)C3CC3)cc2C1=O	-1.35% (inactive)
COc1ccc(NC(=O)N(C)C[C@@H]2OCCCC[C@H](C)Oc3ccc(NC(=O)NC4CCCCC4)cc3C(=O)N([C@H](C)CO)C[C@@H]2C)cc1	-10.6% (inactive)
C[C@H](CO)N1C[C@H](C)[C@H](CN(C)C(=O)Nc2ccccc2)OCCCC[C@H](C)Oc2ccc(NC(=O)Nc3ccccc3)cc2C1=O	0.603% (inactive)
C[C@@H]1CCCCO[C@@H](CN(C)C(=O)Nc2cccc3ccccc23)[C@H](C)CN([C@@H](C)CO)C(=O)c2cc(NC(=O)C3CCCCC3)ccc2O1	-12.5% (inactive)
C[C@H](CO)N1C[C@H](C)[C@H](CN(C)C(=O)Nc2ccc3c(c2)OCO3)OCCCC[C@H](C)Oc2ccc(NC(=O)C3CCCCC3)cc2C1=O	2.78% (inactive)
C[C@H](CO)N1C[C@H](C)[C@H](CN(C)C(=O)Nc2ccc(Cl)cc2)OCCCC[C@H](C)Oc2ccc(NC(=O)C3CCCCC3)cc2C1=O	-12.5% (inactive)

SMILES	activity change, negative = cytotoxicity
C[C@H](CO)N1C[C@H](C)[C@H](CN(C)C(=O)Nc2ccccc2)OCCCC[C@H](C)Oc2ccc(NC(=O)C3CCCCC3)cc2C1=O	-9.15% (inactive)
C[C@H](CO)N1C[C@H](C)[C@H](CN(C)C(=O)Nc2cccc(F)c2)OCCCC[C@H](C)Oc2ccc(NC(=O)C3CCCCC3)cc2C1=O	9.35% (inactive)
C[C@@H]1CCCCO[C@H](CN(C)C(=O)Nc2cccc3ccccc23)[C@@H](C)CN([C@@H](C)CO)C(=O)c2cc(NC(=O)C3CCCCC3)ccc2O1	6.63% (inactive)
C[C@H](CO)N1C[C@H](C)[C@H](CN(C)C(=O)Nc2ccccc2)OCCCC[C@H](C)Oc2ccc(NC(=O)NC3CCCCC3)cc2C1=O	-8.51% (inactive)
C[C@H](CO)N1C[C@H](C)[C@H](CN(C)C(=O)Nc2ccc(F)cc2)OCCCC[C@H](C)Oc2ccc(NC(=O)C3CCOCC3)cc2C1=O	-1.32% (inactive)
C[C@H](CO)N1C[C@H](C)[C@H](CN(C)C(=O)Nc2cccc3ccccc23)OCCCC[C@H](C)Oc2ccc(NC(=O)NC3CCCCC3)cc2C1=O	-18.8% (inactive)
C[C@H]1CCCCO[C@@H](CN(C)C(=O)Nc2ccccc2)[C@@H](C)CN([C@@H](C)CO)C(=O)c2cc(NC(=O)NC3CCCCC3)ccc2O1	3.42% (inactive)
C[C@H](CO)N1C[C@H](C)[C@H](CN(C)C(=O)Nc2ccccc2F)OCCCC[C@H](C)Oc2ccc(NC(=O)C3CCCCC3)cc2C1=O	-11.7% (inactive)
C[C@@H]1CCCCO[C@@H](CN(C)C(=O)Nc2cccc3ccccc23)[C@@H](C)CN([C@H](C)CO)C(=O)c2cc(NC(=O)C3CCCCC3)ccc2O1	-15.4% (inactive)
CC(=O)Nc1ccc2c(c1)C(=O)N([C@H](C)CO)C[C@H](C)[C@H](CN(C)C(=O)Nc1ccc(F)cc1)OCCCC[C@H](C)O2	-16.5% (inactive)
C[C@H](CO)N1C[C@H](C)[C@@H](CN(C)C(=O)Nc2cccc3ccccc23)OCCCC[C@H](C)Oc2ccc(NC(=O)C3CCCCC3)cc2C1=O	-7.19% (inactive)
C[C@H](CO)N1C[C@H](C)[C@H](CN(C)C(=O)Nc2ccc(F)cc2)OCCCC[C@H](C)Oc2ccc(NC(=O)C3CCCC3)cc2C1=O	9.39% (inactive)
C[C@H](CO)N1C[C@H](C)[C@H](CN(C)C(=O)Nc2ccc(F)cc2)OCCCC[C@H](C)Oc2ccc(NC(=O)Nc3ccccc3)cc2C1=O	-10.5% (inactive)
C[C@H](CO)N1C[C@H](C)[C@H](CN(C)C(=O)Nc2ccc3c(c2)OCO3)OCCCC[C@H](C)Oc2ccc(NC(=O)NC3CCCCC3)cc2C1=O	-11.1% (inactive)
C[C@H]1CCCCO[C@@H](CN(C)C(=O)Nc2ccc(F)cc2)[C@@H](C)CN([C@@H](C)CO)C(=O)c2cc(NC(=O)C3CCCCC3)ccc2O1	-15.6% (inactive)
C[C@H](CO)N1C[C@H](C)[C@H](CN(C)C(=O)Nc2cccc3ccccc23)OCCCC[C@H](C)Oc2ccc(NC(=O)C3CCCCC3)cc2C1=O	-4.95% (inactive)
C[C@H](CO)N1C[C@H](C)[C@H](CN(C)C(=O)Nc2cccc3ccccc23)OCCCC[C@H](C)Oc2ccc(NC(=O)c3ccccc3)cc2C1=O	-8.78% (inactive)
C[C@H](CO)N1C[C@H](C)[C@H](CN(C)C(=O)Nc2ccccc2)OCCCC[C@H](C)Oc2ccc(NC(=O)Nc3ccc4c(c3)OCO4)cc2C1=O	-5.94% (inactive)
C[C@H](CO)N1C[C@H](C)[C@H](CN(C)C(=O)Nc2ccc3ccccc3c2)OCCCC[C@H](C)Oc2ccc(NC(=O)C3CCCCC3)cc2C1=O	7.21% (inactive)
C[C@H](CO)N1C[C@H](C)[C@H](CN(C)C(=O)Nc2ccc(C(F)(F)F)cc2)OCCCC[C@H](C)Oc2ccc(NC(=O)NC3CCCCC3)cc2C1=O	5.48% (inactive)
C[C@H]1CCCCO[C@@H](CN(C)C(=O)Nc2cccc3ccccc23)[C@@H](C)CN([C@@H](C)CO)C(=O)c2cc(NC(=O)C3CCCCC3)ccc2O1	-14.3% (inactive)
C[C@H](CO)N1C[C@H](C)[C@H](CN(C)C(=O)Nc2ccc(F)cc2)OCCCC[C@H](C)Oc2ccc(NC(=O)Nc3ccc(F)cc3)cc2C1=O	-12.4% (inactive)

From PubChem BioAssay AID743481 (Broad Institute, 2014)
